In the supplement of paper PMC10307832:

Assays:
Experiment in all cases: relative viability (nuclei count vs DMSO), 5 days (fraction); higher = more cells survive
LK-2 = system: LK-2
In short: (§1)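 Lung cancer cell lines, seeded in 1536-well plates, were treated the following day by pin tool with a single drug or with five library-drug doses (not always all listed) in √10 steps on top of a fixed anchor-drug dose. Cells were fixed and nuclei stained in one step after 5 days, and nuclei were counted. Relative viability is the nuclei count for treated wells divided by that for vehicle wells, reported as medians of duplicate plates.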

NCI-H522 = system: NCI-H522
In short: as §1

NCI-H1648 = system: NCI-H1648
In short: as §1

NCI-H1623 = system: NCI-H1623
In short: as §1

NCI-H1650 = system: NCI-H1650
In short: as §1

CAL-12T = system: CAL-12T
In short: as §1

In the case of `O=C(O)c1ccc(-c2c[nH]c3ncc(-c4ccccc4)cc23)cc1C1CCCC1` + Cc1cc(Nc2cc(N3CCN(C)CC3)nc(Sc3ccc(NC(=O)C4CC4)cc3)n2)n[nH]1 [Tozasertib] (partner 0.1 µM), the relative viability (LK-2; first compound 0.04 µM) is reported as 0.186, the relative viability (LK-2; first compound 0.1265 µM) is reported as 0.161 and the relative viability (LK-2; first compound 0.4 µM) is reported as 0.181. The relative viability (LK-2; first compound 1.265 µM) was 0.184, the relative viability (NCI-H522; first compound 0.04 µM) was 0.537 and the relative viability (NCI-H522; first compound 0.1265 µM) was 0.654. It also gave a relative viability (NCI-H522; first compound 0.4 µM) of 0.579, a relative viability (NCI-H522; first compound 1.265 µM) of 0.498 and a relative viability (NCI-H1648; first compound 0.04 µM) of 0.545. It also gave a relative viability (NCI-H1648; first compound 0.1265 µM) of 0.635, a relative viability (NCI-H1648; first compound 0.4 µM) of 0.439 and a relative viability (NCI-H1648; first compound 1.265 µM) of 0.378. For the same molecule, the relative viability (NCI-H1623; first compound 0.04 µM) was 0.421, the relative viability (NCI-H1623; first compound 0.1265 µM) was 0.488 and the relative viability (NCI-H1623; first compound 0.4 µM) was 0.481. For the same molecule, the relative viability (NCI-H1623; first compound 1.265 µM) was 0.398, the relative viability (NCI-H1650; first compound 0.04 µM) was 0.458 and the relative viability (NCI-H1650; first compound 0.1265 µM) was 0.388. The relative viability (NCI-H1650; first compound 0.4 µM) was 0.372, the relative viability (NCI-H1650; first compound 1.265 µM) was 0.295 and the relative viability (CAL-12T; first compound 0.04 µM) was 0.314. The relative viability (CAL-12T; first compound 0.1265 µM) was 0.374, the relative viability (CAL-12T; first compound 0.4 µM) was 0.315 and the relative viability (CAL-12T; first compound 1.265 µM) was 0.337.
`CC1(C)CCC(c2ccc(Cl)cc2)=C(CN2CCN(c3ccc(C(=O)NS(=O)(=O)c4ccc(N[C@H](CCN5CCOCC5)CSc5ccccc5)c(S(=O)(=O)C(F)(F)F)c4)cc3)CC2)C1` [Navitoclax] + COc1cccc2cc(-c3nc([C@H]4CC[C@H](C(=O)O)CC4)n4ncnc(N)c34)[nH]c12 [OSI-027] (partner 0.5 µM) showed a relative viability (LK-2; first compound 0.005 µM) of 0.204, a relative viability (LK-2; first compound 0.01581 µM) of 0.256 and a relative viability (LK-2; first compound 0.05 µM) of 0.182. For the same molecule, the relative viability (LK-2; first compound 0.1581 µM) was 0.174, the relative viability (LK-2; first compound 0.5 µM) was 0.193 and the relative viability (NCI-H522; first compound 0.005 µM) was 0.605. For the same molecule, the relative viability (NCI-H522; first compound 0.01581 µM) was 0.705, the relative viability (NCI-H522; first compound 0.05 µM) was 0.702 and the relative viability (NCI-H522; first compound 0.1581 µM) was 0.685. It also gave a relative viability (NCI-H522; first compound 0.5 µM) of 0.747, a relative viability (NCI-H1648; first compound 0.005 µM) of 0.257 and a relative viability (NCI-H1648; first compound 0.01581 µM) of 0.256. The relative viability (NCI-H1648; first compound 0.1581 µM) was 0.253, the relative viability (NCI-H1648; first compound 0.5 µM) was 0.306 and the relative viability (NCI-H1623; first compound 0.005 µM) was 0.419. For the same molecule, the relative viability (NCI-H1623; first compound 0.01581 µM) was 0.376, the relative viability (NCI-H1623; first compound 0.05 µM) was 0.369 and the relative viability (NCI-H1623; first compound 0.1581 µM) was 0.439. For the same molecule, the relative viability (NCI-H1623; first compound 0.5 µM) was 0.373, the relative viability (NCI-H1650; first compound 0.005 µM) was 0.601 and the relative viability (NCI-H1650; first compound 0.01581 µM) was 1. The relative viability (NCI-H1650; first compound 0.05 µM) was 0.698, the relative viability (NCI-H1650; first compound 0.1581 µM) was 0.526 and the relative viability (NCI-H1650; first compound 0.5 µM) was 0.445. The relative viability (CAL-12T; first compound 0.005 µM) was 0.649, the relative viability (CAL-12T; first compound 0.01581 µM) was 0.676 and the relative viability (CAL-12T; first compound 0.05 µM) was 0.557. The relative viability (CAL-12T; first compound 0.1581 µM) was 0.677 and the relative viability (CAL-12T; first compound 0.5 µM) was 0.629.
For `NC(=O)Nc1cc(-c2cccc(F)c2)sc1C(=O)N[C@H]1CCCNC1` [AZD7762] + Cc1cc(Nc2cc(N3CCN(C)CC3)nc(Sc3ccc(NC(=O)C4CC4)cc3)n2)n[nH]1 [Tozasertib] (partner 0.1 µM), the relative viability (LK-2; first compound 0.01 µM) was 0.194, the relative viability (LK-2; first compound 0.03162 µM) was 0.186 and the relative viability (LK-2; first compound 0.1 µM) was 0.195. It also gave a relative viability (LK-2; first compound 0.3162 µM) of 0.156, a relative viability (LK-2; first compound 1 µM) of 0.165 and a relative viability (NCI-H522; first compound 0.01 µM) of 0.536. It also gave a relative viability (NCI-H522; first compound 0.03162 µM) of 0.657, a relative viability (NCI-H522; first compound 0.1 µM) of 0.621 and a relative viability (NCI-H522; first compound 0.3162 µM) of 0.566. The relative viability (NCI-H522; first compound 1 µM) was 0.535, the relative viability (NCI-H1648; first compound 0.01 µM) was 0.527 and the relative viability (NCI-H1648; first compound 0.03162 µM) was 0.552. It also gave a relative viability (NCI-H1648; first compound 0.1 µM) of 0.36, a relative viability (NCI-H1648; first compound 0.3162 µM) of 0.451 and a relative viability (NCI-H1648; first compound 1 µM) of 0.425. The relative viability (NCI-H1623; first compound 0.01 µM) was 0.4, the relative viability (NCI-H1623; first compound 0.03162 µM) was 0.43 and the relative viability (NCI-H1623; first compound 0.1 µM) was 0.44. It also gave a relative viability (NCI-H1623; first compound 0.3162 µM) of 0.441, a relative viability (NCI-H1623; first compound 1 µM) of 0.39 and a relative viability (NCI-H1650; first compound 0.01 µM) of 0.482. For the same molecule, the relative viability (NCI-H1650; first compound 0.03162 µM) was 0.467, the relative viability (NCI-H1650; first compound 0.1 µM) was 0.424 and the relative viability (NCI-H1650; first compound 0.3162 µM) was 0.207. The relative viability (NCI-H1650; first compound 1 µM) was 0.118, the relative viability (CAL-12T; first compound 0.01 µM) was 0.402 and the relative viability (CAL-12T; first compound 0.03162 µM) was 0.332. For the same molecule, the relative viability (CAL-12T; first compound 0.1 µM) was 0.353, the relative viability (CAL-12T; first compound 0.3162 µM) was 0.168 and the relative viability (CAL-12T; first compound 1 µM) was 0.0999.
`Oc1nc(-c2ccc(C(F)(F)F)cc2)nc2c1CSCC2` [XAV939] + Cc1cc(Nc2cc(N3CCN(C)CC3)nc(Sc3ccc(NC(=O)C4CC4)cc3)n2)n[nH]1 [Tozasertib] (partner 0.1 µM) was tested, and the relative viability (LK-2; first compound 0.08 µM) was 0.185, the relative viability (LK-2; first compound 0.253 µM) was 0.171 and the relative viability (LK-2; first compound 0.8 µM) was 0.157. It also gave a relative viability (LK-2; first compound 2.53 µM) of 0.172, a relative viability (NCI-H522; first compound 0.08 µM) of 0.6 and a relative viability (NCI-H522; first compound 0.253 µM) of 0.529. For the same molecule, the relative viability (NCI-H522; first compound 0.8 µM) was 0.568, the relative viability (NCI-H522; first compound 2.53 µM) was 0.638 and the relative viability (NCI-H1648; first compound 0.08 µM) was 0.664. It also gave a relative viability (NCI-H1648; first compound 0.8 µM) of 0.453, a relative viability (NCI-H1648; first compound 2.53 µM) of 0.275 and a relative viability (NCI-H1623; first compound 0.08 µM) of 0.403. The relative viability (NCI-H1623; first compound 0.253 µM) was 0.414, the relative viability (NCI-H1623; first compound 0.8 µM) was 0.386 and the relative viability (NCI-H1623; first compound 2.53 µM) was 0.373. It also gave a relative viability (NCI-H1650; first compound 0.08 µM) of 0.471, a relative viability (NCI-H1650; first compound 0.253 µM) of 0.36 and a relative viability (NCI-H1650; first compound 0.8 µM) of 0.406. It also gave a relative viability (NCI-H1650; first compound 2.53 µM) of 0.332, a relative viability (CAL-12T; first compound 0.08 µM) of 0.386 and a relative viability (CAL-12T; first compound 0.253 µM) of 0.29. It also gave a relative viability (CAL-12T; first compound 0.8 µM) of 0.222 and a relative viability (CAL-12T; first compound 2.53 µM) of 0.196.
